Laboratory results as given in PMC7714403 (JCI Insight, 2020).

Key:
Test in all cases: KiNativ, OCI cells live cell
[1] = test system: AurA, AurB, AurC; assay type: cell-based, human; details: labeling site ATP Loop, peptide GKFGNVYLAR
[2] = biological target: CCRK (Homo sapiens, UniProt Q8IZL9); assay type: cell-based; details: 2 h, labeling site Lys2, peptide […]
[3] = biological target: CDK4 (Homo sapiens, UniProt P11802); assay type: cell-based; details: 2 h, labeling site Lys2, peptide […]
[4] = biological target: T1, ILK (Homo sapiens, UniProt Q13418); assay type: cell-based; details: 2 h
T1 sequence (Q13418 1-452): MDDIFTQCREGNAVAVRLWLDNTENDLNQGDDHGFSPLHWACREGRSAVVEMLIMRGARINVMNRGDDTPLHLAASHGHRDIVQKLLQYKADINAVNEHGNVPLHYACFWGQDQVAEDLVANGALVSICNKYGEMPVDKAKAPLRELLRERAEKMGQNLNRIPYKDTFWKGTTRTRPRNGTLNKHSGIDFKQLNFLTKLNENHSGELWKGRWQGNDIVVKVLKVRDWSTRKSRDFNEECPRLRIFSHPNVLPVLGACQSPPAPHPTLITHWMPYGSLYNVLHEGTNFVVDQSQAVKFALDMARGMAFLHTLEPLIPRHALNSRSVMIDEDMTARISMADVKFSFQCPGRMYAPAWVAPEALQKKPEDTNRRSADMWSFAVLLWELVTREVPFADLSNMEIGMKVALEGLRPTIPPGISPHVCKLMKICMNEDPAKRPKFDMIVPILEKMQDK

[5] = biological target: T2, IRAK4 (Homo sapiens, UniProt Q9NWZ3); assay type: cell-based
T2 sequence (Q9NWZ3 1-460): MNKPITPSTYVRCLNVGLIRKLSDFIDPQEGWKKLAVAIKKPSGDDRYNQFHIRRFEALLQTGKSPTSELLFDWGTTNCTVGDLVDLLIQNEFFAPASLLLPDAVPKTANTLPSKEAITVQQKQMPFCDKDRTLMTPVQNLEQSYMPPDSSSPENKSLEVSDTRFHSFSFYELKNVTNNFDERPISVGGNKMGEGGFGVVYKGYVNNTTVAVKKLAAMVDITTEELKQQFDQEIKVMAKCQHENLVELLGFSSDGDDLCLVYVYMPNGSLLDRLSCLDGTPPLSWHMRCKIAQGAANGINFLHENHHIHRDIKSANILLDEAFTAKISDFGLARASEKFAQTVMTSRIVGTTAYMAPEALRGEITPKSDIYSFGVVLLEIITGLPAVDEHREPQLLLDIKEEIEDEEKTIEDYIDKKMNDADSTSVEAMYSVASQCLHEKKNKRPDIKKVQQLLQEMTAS

[6] = test system: MAP3K2, MAP3K3; assay type: cell-based, human; details: labeling site Lys2, peptide DIKGANILR
[7] = biological target: MAP3K3 (Homo sapiens, UniProt Q99759); assay type: cell-based; details: 2 h, labeling site Lys1, peptide […]
[8] = biological target: MAPKAPK3 (Homo sapiens, UniProt Q16644); assay type: cell-based; details: 2 h, labeling site ATP Loop, peptide […]
[9] = test system: MST3, MST4, YSK1; assay type: cell-based, human; details: labeling site Activation Loop, peptide LADFGVAGQLTDTQIKR
[10] = biological target: NDR1 (Homo sapiens, UniProt Q15208); assay type: cell-based; details: 2 h
[11] = test system: NEK6, NEK7; assay type: cell-based, human; details: labeling site Lys2, peptide DIKPANVFITATGVVK
[12] = biological target: p70S6Kb (Homo sapiens, UniProt Q9UBS0); assay type: cell-based; details: 2 h
[13] = biological target: T3, PAN3 (Homo sapiens, UniProt Q58A45); assay type: cell-based; details: 2 h, labeling site ATP
T3 sequence (Q58A45 1-887): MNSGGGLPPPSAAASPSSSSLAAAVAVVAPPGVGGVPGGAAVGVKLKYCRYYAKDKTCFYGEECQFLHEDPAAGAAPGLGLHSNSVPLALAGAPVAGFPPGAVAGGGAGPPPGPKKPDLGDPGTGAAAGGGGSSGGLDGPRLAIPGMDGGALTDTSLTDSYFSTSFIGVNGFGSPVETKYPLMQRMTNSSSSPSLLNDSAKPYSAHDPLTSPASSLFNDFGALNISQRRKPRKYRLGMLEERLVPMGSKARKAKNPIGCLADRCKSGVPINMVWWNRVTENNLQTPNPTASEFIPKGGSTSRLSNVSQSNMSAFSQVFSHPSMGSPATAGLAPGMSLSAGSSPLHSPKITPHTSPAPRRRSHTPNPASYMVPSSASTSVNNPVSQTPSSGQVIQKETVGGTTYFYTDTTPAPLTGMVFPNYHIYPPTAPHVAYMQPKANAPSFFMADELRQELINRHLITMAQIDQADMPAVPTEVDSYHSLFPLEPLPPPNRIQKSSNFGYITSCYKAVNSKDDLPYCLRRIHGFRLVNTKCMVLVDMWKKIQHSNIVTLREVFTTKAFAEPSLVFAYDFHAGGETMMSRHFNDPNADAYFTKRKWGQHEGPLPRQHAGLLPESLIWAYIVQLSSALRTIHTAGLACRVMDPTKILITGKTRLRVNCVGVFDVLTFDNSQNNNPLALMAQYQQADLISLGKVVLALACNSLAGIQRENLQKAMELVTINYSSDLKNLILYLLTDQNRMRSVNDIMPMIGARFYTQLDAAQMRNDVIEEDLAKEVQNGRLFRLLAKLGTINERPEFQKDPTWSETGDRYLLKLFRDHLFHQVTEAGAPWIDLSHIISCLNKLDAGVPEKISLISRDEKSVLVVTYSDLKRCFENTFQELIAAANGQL

[14] = biological target: SLK (Homo sapiens, UniProt Q9H2G2); assay type: cell-based; details: 2 h, labeling site Lys2, peptide […]
[15] = test system: ZC1/HGK, ZC2/TNIK, ZC3/MINK; assay type: cell-based, human; details: labeling site Lys2, peptide DIKGQNVLLTENAEVK

Chain of NDR1 (Q15208 whole entry): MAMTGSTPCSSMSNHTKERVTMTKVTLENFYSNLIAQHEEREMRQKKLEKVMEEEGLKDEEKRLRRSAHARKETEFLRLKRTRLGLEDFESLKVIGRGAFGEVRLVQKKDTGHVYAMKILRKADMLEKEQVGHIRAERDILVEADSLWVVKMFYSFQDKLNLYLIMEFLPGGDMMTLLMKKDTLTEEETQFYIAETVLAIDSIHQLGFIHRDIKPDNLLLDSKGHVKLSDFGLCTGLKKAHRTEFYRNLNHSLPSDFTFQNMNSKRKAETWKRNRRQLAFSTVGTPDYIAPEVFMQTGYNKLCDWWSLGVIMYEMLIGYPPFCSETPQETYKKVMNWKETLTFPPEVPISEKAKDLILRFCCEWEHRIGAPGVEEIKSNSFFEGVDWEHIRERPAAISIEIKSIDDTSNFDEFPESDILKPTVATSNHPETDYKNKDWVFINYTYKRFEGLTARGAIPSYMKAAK
Chain of p70S6Kb (Q9UBS0 whole entry): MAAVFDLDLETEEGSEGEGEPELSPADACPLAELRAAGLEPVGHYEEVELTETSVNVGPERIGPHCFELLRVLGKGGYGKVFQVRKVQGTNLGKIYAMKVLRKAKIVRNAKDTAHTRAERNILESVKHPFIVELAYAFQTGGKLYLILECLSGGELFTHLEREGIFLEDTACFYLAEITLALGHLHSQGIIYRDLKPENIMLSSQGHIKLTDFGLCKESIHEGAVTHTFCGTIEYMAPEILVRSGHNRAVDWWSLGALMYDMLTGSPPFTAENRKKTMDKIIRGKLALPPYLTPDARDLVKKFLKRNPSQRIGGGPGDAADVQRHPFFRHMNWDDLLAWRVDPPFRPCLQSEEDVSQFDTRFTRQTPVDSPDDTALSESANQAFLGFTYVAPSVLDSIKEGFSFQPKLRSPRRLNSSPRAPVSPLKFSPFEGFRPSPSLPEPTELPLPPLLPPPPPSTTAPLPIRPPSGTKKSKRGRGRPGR
Chain of MAP3K3 (Q99759 whole entry): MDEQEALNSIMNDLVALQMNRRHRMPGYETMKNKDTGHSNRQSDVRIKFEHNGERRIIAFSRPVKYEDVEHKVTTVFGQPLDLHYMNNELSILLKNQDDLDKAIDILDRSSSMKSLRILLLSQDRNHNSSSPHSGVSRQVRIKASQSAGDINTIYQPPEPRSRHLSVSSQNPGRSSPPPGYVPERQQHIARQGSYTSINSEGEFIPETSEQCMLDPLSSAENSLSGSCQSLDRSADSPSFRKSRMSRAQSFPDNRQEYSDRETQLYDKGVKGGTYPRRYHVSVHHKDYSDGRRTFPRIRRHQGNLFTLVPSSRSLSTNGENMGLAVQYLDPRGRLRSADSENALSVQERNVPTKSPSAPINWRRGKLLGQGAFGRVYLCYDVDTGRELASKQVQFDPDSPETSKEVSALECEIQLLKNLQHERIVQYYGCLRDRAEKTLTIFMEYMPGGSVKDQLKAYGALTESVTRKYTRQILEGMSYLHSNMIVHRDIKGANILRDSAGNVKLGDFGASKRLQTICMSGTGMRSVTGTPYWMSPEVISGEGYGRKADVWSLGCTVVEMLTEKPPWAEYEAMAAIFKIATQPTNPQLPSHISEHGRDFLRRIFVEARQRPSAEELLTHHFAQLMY
Chain of MAPKAPK3 (Q16644 whole entry): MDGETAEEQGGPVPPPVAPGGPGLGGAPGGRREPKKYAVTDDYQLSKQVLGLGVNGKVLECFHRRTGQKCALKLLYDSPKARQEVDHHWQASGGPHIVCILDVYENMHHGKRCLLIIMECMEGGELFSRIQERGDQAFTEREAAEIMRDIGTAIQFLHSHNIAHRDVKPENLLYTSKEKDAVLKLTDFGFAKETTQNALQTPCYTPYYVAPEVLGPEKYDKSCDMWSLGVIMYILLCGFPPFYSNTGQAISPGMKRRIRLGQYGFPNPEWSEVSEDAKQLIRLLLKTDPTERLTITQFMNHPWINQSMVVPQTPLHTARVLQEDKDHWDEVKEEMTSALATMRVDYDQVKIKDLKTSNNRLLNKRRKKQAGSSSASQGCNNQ
Chain of CCRK (Q8IZL9 whole entry): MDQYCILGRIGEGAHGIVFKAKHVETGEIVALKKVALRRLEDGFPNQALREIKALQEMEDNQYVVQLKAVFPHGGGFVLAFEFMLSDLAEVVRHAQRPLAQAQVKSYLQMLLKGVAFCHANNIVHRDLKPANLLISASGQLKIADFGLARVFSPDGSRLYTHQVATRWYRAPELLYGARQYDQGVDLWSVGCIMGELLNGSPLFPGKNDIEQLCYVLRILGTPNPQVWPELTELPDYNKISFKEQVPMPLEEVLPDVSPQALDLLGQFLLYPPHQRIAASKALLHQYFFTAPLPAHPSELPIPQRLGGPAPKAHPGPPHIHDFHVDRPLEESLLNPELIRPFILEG
Chain of CDK4 (P11802 2-303 limits assumed): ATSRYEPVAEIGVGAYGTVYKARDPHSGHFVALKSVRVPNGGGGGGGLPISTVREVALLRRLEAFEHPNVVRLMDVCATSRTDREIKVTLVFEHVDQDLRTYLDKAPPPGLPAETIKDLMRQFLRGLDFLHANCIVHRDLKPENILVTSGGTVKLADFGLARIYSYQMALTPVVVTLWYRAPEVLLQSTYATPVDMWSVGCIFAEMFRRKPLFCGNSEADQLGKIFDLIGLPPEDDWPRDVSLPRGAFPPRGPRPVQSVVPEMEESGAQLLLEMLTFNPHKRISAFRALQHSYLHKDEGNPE
Chain of SLK (Q9H2G2 whole entry): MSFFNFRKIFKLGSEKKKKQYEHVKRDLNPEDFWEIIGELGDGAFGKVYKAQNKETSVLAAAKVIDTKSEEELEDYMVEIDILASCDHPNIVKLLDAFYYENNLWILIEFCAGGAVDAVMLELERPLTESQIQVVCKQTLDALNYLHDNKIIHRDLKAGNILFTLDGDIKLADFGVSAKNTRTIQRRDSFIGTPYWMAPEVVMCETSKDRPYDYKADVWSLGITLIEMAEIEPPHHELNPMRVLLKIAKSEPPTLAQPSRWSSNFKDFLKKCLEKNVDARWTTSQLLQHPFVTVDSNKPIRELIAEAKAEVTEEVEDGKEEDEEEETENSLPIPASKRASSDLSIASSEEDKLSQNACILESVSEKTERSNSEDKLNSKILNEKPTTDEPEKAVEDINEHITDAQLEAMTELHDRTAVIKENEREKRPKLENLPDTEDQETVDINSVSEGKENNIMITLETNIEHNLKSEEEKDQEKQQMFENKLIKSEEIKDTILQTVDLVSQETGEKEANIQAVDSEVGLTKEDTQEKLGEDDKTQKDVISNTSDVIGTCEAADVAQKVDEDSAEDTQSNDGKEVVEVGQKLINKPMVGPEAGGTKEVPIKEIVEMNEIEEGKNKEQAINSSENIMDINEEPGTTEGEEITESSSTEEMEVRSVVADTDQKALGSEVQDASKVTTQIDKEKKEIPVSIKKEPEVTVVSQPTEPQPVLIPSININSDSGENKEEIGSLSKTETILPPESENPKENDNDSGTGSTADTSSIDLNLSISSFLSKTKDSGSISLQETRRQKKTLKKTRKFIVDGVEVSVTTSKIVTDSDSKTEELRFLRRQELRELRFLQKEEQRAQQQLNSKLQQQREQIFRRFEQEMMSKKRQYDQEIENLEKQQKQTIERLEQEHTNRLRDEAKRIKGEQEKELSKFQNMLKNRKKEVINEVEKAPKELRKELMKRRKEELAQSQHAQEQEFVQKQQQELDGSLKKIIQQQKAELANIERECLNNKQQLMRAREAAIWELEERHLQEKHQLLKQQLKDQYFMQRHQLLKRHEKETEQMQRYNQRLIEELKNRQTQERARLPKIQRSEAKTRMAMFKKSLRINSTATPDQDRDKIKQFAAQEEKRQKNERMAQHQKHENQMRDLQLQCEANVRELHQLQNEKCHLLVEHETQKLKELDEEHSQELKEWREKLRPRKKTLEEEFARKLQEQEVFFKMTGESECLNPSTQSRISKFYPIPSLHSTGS

CN1CCN(Cc2ccc(Nc3ncc(Cl)c(Nc4ccccc4S(=O)(=O)N(C)C)n3)cc2)CC1 [TP-0903]
Inhibition [1]: 91.0%
inhibition at 0.1 µM [2]: 58.1%
inhibition at 0.1 µM [3]: 24.3%
inhibition at 0.1 µM ([4]; labeling site Lys1, peptide WQGNDIVVKVLK): -21.7%
inhibition at 0.1 µM ([4]; labeling site Protein Kinase Domain, peptide ISMADVKFSFQCPGR): -42.5%
Inhibition ([5]; labeling site Lys1, peptide GYVNNTTVAVKK): -0.0707%
Inhibition ([5]; labeling site Lys2, peptide DIKSANILLDEAFTAK): 8.2%
Inhibition [6]: 21.4%
inhibition at 0.1 µM [7]: 20%
inhibition at 0.1 µM [8]: -28.5%
Inhibition [9]: -57.1%
inhibition at 0.1 µM ([10]; labeling site Lys1, peptide DTGHVYAMKILR): 12.3%
inhibition at 0.1 µM ([10]; labeling site Lys2, peptide DIKPDNLLLDSK): -7.7%
Inhibition [11]: -9.6%
inhibition at 0.1 µM ([12]; labeling site Lys1, peptide IYAMKVLR): -2.8%
inhibition at 0.1 µM ([12]; labeling site Lys2, peptide DLKPENIMLSSQGHIK): -18.3%
inhibition at 0.1 µM ([13]; peptide IQKSSNFGYITSCYK): -8.4%
inhibition at 0.1 µM ([13]; peptide VMDPTKILITGK): -9.4%
inhibition at 0.1 µM [14]: 86.1%
Inhibition [15]: -42.0%
